Reference: PubChem BioAssay (NCI)
Values joined by “and” are separate entries in the source; they are usually repeats but may differ in a detail not shown here. Identical values can stand only once.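 Following 48 hours of exposure in 96-well plates, responses at five concentrations were used to interpolate endpoints linearly. The concentration for 50% growth inhibition is given as GI50. At the TGI there is no net growth.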

Legend:
Experiment in all cases: inhibition of tumour cell growth, NCI panel, 48 h
K-562 leukemia = test system: K-562 leukemia
M14 melanoma = test system: M14 melanoma
MALME-3M melanoma = test system: MALME-3M melanoma
NCI-H226 lung = test system: NCI-H226 lung
NCI-H23 lung = test system: NCI-H23 lung
NCI-H522 lung = test system: NCI-H522 lung
SF-268 CNS = test system: SF-268 CNS
SK-MEL-5 melanoma = test system: SK-MEL-5 melanoma
SK-OV-3 ovarian = test system: SK-OV-3 ovarian
SR leukemia = test system: SR leukemia

SMILES	GI50 (K-562 leukemia)	TGI (K-562 leukemia)	GI50 (M14 melanoma)	TGI (M14 melanoma)	GI50 (MALME-3M melanoma)	TGI (MALME-3M melanoma)	GI50 (NCI-H226 lung)	TGI (NCI-H226 lung)	GI50 (NCI-H23 lung)	TGI (NCI-H23 lung)	GI50 (NCI-H522 lung)	TGI (NCI-H522 lung)	GI50 (SF-268 CNS)	TGI (SF-268 CNS)	GI50 (SK-MEL-5 melanoma)	TGI (SK-MEL-5 melanoma)	GI50 (SK-OV-3 ovarian)	TGI (SK-OV-3 ovarian)	GI50 (SR leukemia)	TGI (SR leukemia)
CCN(CC)CCC(CNc1c2ccc([N+](=O)[O-])cc2nc2cc(OC)c(OC)cc12)c1ccccc1 (configuration not stated)	0.142 µM and 0.146 µM	1.25 µM and 3.85 µM	0.335 µM and 0.305 µM	1.4 µM and 1.23 µM	0.201 µM and 0.191 µM	0.454 µM and 0.479 µM	0.26 µM and 0.329 µM	0.869 µM and 1.47 µM	0.292 µM and 0.287 µM	1.23 µM and 1.29 µM	0.345 µM and 0.166 µM	1.46 µM and 0.435 µM	0.238 µM and 0.109 µM	1.29 µM and 0.573 µM	0.445 µM	1.47 µM	0.844 µM and 0.695 µM	2.17 µM and 2.55 µM	0.0379 µM and 0.057 µM	0.521 µM and 3.57 µM
O=C(O)c1ccc([N+](=O)[O-])c(P(=O)(O)O)c1	–	> 100 µM	–	> 100 µM	–	–	–	> 100 µM	–	> 100 µM	–	–	–	–	–	> 100 µM	–	> 100 µM	–	> 100 µM
S=C(Nc1ccc(-c2nc3ccccc3s2)cc1)Nc1ccccn1	27.6 µM	> 100 µM	25.2 µM	60.9 µM	28.6 µM	73.9 µM	26.4 µM	> 76.2 µM	25.7 µM	70.6 µM	24.7 µM	> 61.3 µM	46.6 µM	> 100 µM	17.2 µM	36.2 µM	59.7 µM	> 100 µM	26.6 µM	57.4 µM
Cn1nc(-c2ccccc2)c(C(=O)/C=C/c2ccccc2)c(N2CCCCC2)c1=O	–	> 100 µM	–	> 100 µM	–	–	–	–	–	> 100 µM	–	> 100 µM	–	> 100 µM	–	> 100 µM	–	> 100 µM	–	–
CCCCC(SC(=S)N(CC)CC)C(=O)Nc1nc(CC(=O)OCC)cs1 (configuration not stated)	25 µM	> 100 µM	33.7 µM	> 100 µM	24.8 µM	> 100 µM	58 µM	> 100 µM	–	–	13.3 µM	> 100 µM	54.3 µM	> 100 µM	13.5 µM	30.9 µM	75.6 µM	> 100 µM	29.4 µM	> 100 µM
CCOC(=O)CC(=O)N(c1ccc(OC)cc1)C(C(=O)OC)c1ccccc1 (configuration not stated)	–	> 100 µM	–	> 100 µM	–	–	–	–	–	> 100 µM	–	> 100 µM	–	> 100 µM	–	> 100 µM	–	–	–	> 100 µM
CC(=O)c1cc2c3c(c1)c1cc4c(cc1c(=O)n3CC2)OCO4	–	> 100 µM	–	> 100 µM	–	> 100 µM	–	> 100 µM	–	> 100 µM	–	34 µM	–	–	–	> 100 µM	–	> 100 µM	–	34.9 µM
Nc1ccn(C2OC(CO[P+](=O)OC3C(CO[P+](=O)OC4C(CO[P+](=O)OC5C(CO[P+](=O)OC6C(CO[P+](=O)OC7C(CO[P+](=O)OC8C(CO[P+](=O)OC9C(CO[P+](=O)OC%10C(CO[P+](=O)OC%11C(CO)OC(n%12ccc(N)nc%12=O)C%11(F)F)OC(n%11ccc(N)nc%11=O)C%10(F)F)OC(n%10ccc(N)nc%10=O)C9(F)F)OC(n9ccc(N)nc9=O)C8(F)F)OC(n8ccc(N)nc8=O)C7(F)F)OC(n7ccc(N)nc7=O)C6(F)F)OC(n6ccc(N)nc6=O)C5(F)F)OC(n5ccc(N)nc5=O)C4(F)F)OC(n4ccc(N)nc4=O)C3(F)F)C(O)C2(F)F)c(=O)n1 (configuration not stated)	2.71 µM	> 100 µM	0.0397 µM	0.27 µM	50.9 µM	> 100 µM	18.3 µM	> 100 µM	–	–	0.224 µM	> 100 µM	–	–	–	> 100 µM	0.255 µM	> 100 µM	–	0.507 µM
O=[n+]1cnn([O-])c2ccccc21	–	> 100 µM	–	64 µM	–	47.6 µM	–	> 100 µM	–	> 100 µM	–	45.2 µM	–	> 100 µM	–	–	–	> 100 µM	–	> 100 µM
CC1C(=O)CCC1C(Sc1ccccc1)(Sc1ccccc1)Sc1ccccc1 (configuration not stated)	–	80.5 µM	–	> 100 µM	–	> 100 µM	–	–	–	> 100 µM	–	26.8 µM	–	46.3 µM	–	73.5 µM	–	> 100 µM	–	–
CCCCN(CCCC)c1cc(C(=O)CCCCCN)c2ccccc2n1	2.47 µM	5 µM	1.83 µM	3.29 µM	2.16 µM	4.16 µM	–	–	1.89 µM	3.8 µM	1.91 µM	3.52 µM	3.38 µM	12.7 µM	1.58 µM	2.92 µM	1.76 µM	3.16 µM	–	–
COc1cc(-c2nn(C)nc2-c2cc3ccccc3s2)cc(OC)c1OC	0.0428 µM	> 100 µM	0.0769 µM	> 100 µM	16.9 µM	> 100 µM	> 100 µM	> 100 µM	0.392 µM	> 100 µM	0.0232 µM	0.0787 µM	0.638 µM	> 100 µM	0.225 µM	> 100 µM	0.311 µM	> 100 µM	–	–
CCC[CH2][Sn]([CH2]CCC)([O]C(=O)c1cc(OC)c(OC)c(OC)c1)[O]C(=O)c1cc(OC)c(OC)c(OC)c1	0.29 µM	1.99 µM	1.42 µM	2.83 µM	0.946 µM	2.17 µM	1.21 µM	2.59 µM	0.437 µM	1.56 µM	0.191 µM	0.348 µM	1.21 µM	2.48 µM	1.49 µM	2.97 µM	1.69 µM	3.25 µM	–	–
Clc1ccc(N/N=C/c2ccccn2)nc1	0.383 µM	> 100 µM	0.375 µM	–	–	–	0.401 µM	> 100 µM	0.579 µM	> 100 µM	0.323 µM	37.4 µM	0.365 µM	> 100 µM	0.423 µM	2.59 µM	0.508 µM	> 100 µM	0.339 µM	> 52.8 µM
Nc1ccccc1S(=O)c1ccccc1 (configuration not stated)	–	> 100 µM	–	> 100 µM	–	> 100 µM	–	> 100 µM	–	> 100 µM	–	> 100 µM	–	> 100 µM	–	> 100 µM	–	> 100 µM	–	–
CCOC(=O)NC(=O)c1cn(CCCCCCCCCCC(=O)N2CCN(CCn3cc(C(=O)NC(=O)OCC)c(=O)[nH]c3=O)CC2)c(=O)[nH]c1=O	–	> 100 µM	–	> 100 µM	–	–	–	–	–	> 100 µM	–	–	–	–	–	> 100 µM	–	> 100 µM	–	–
